Key:
C2-less SHIP1 protein = assay: Agonism with SHIP1 protein lacking the C2 domain; format: biochemical; conditions: C2 domain of the protein deleted
Text: New small molecule SHIP1 activators are needed to explore the effects of these molecules in IBD and AD model systems to define the role of SHIP in these disorders. […] The K306 structure is related to a series of sulfonamide based endothelial lipase inhibitors. As the molecule came from screening, no information was available about structure activity relationships in this SHIP1 activator. Sulfonamides have been used previously as phosphate mimics in the development of phosphatase inhibitors however, so it is possible that one of the sulfonamides in the K306 structure is mimicking the one of the phosphates on PI(3,4)P2, the endogenous ligand for allosteric activation of SHIP1. […] Given that K306 provides a new class of SHIP1 activators with a unique binding site that could have implications in Crohn's disease and Alzheimer's disease, synthetic studies were initiated on the structure.

[1] = tested on: IL-6 production in BV-2 cells; assay: ELISA quantitation of IL-6 production in BV-2 cells after stimulation with LPS; format: cell-based, murine; conditions: 1 h pretreatment with SHIP1 activator 10 μM, then LPS
Description: FIG. 3 presents an ELISA quantitation of IL-6 production in BV-2 cells after stimulation with LPS. BV-2 cells were plated and treated for 1 h with vehicle (Veh, 0.25% DMSO) or SHIP1 activator (10 μM in Veh) prior to addition of LPS (100 ng/ml). Unstimulated BV2 cells treated with Veh are shown as an additional control to assess LPS induction of IL-6. (A) Evaluation of 1, 26, 29 and 53. (B) In a separate experiment, 70, and 71 were evaluated under similar conditions. Bars indicate Mean G SEM; statistical tests: two-way ANOVA with Tukey correction, **** p<0.0001, ** p<0.01.
Given this experience, some of the new activators were evaluated in a cell-based setting. Using the immortalized BV-2 cell line, which is derived from murine microglia and retains many microglial morphological and functional characteristics of microglia, an assay for the anti-inflammatory effects of these activators was developed. This assay involved treatment of the cells with lipopolysaccharides (LPS) to induce IL-6 production which can then be quantified with an ELISA.
Cell culture: The BV2 cell line was obtained from the ATCC (American Type Culture Collection). The ATCC and performs genetic validation on deposited cell lines. For the inflammatory cytokines production studies, BV2 cells were cultured in DMEM/F12 (Corning) 10% HI FBS at 37° C. and 5% CO2 in a humidified incubator and split 1:6 every 3 days with Cellstripper™ (Corning). Cells were kept at 37° C. and 5% CO2 in a humidified incubator.
ELISA measurements: Parental (scrambled guide control) BV2 cells were seeded at 5×10^5/mL, […] in 48 well plate. Cell were treated with […] small molecule or vehicle control (0.5% DMSO) and incubated for 1 h before addition of stimuli. LPS (10 ng/ml, E. coli O111: B4, Sigma) was added to the cells and incubated for 6 h to detect IL-6 production. Supernatants were spun down at 400×g for 5 minutes to remove cell debris and froze at −20° C. for ELISAs. IL-6 levels were quantified from cellular supernatants with ELISA MAX™ Standard Set Mouse IL-6 kit (Biolegend), following manufacturer's recommendations. We detected absorbance at 450 nm and removed 570 nm background absorbance, with a plate reader (Synergy 2, BioTek). All experiments were repeated three times and each value was reported as mean±SEM from biological replicates in the same assay. All statistical analysis were performed using GraphPad Prism (version 9.2). Two-way ANOVA was used to analyze all data with two independent variables as time and treatment or concentration and treatment, data is reported as Mean+/−SEM.

## Cc1sc(S(=O)(=O)N2CCSCC2)cc1NC(=O)CNS(=O)(=O)c1ccc(F)cc1 [Compound K306, 2-(4-Fluorobenzenesulfonamido)-N-[2-methyl-5-(thiomorpholine-4-sulfonyl)thiophen-3-yl]acetamide]
C2-less SHIP1 protein
  Agonism with C2-less SHIP1 protein: maintained agonism
[1]
  IL-6 production induced by LPS: significantly diminished
